Several values for one entry are separate records, joined by “and”; a condition that tells them apart may be missing. Equal values may be shown once. Inconclusive results and toxic doses are left out.

This assay deals with BDF1 mice, P388 leukemia ip, median survival T/C. The assay is described as follows: NCI In Vivo Anticancer Drug Screen. Data for tumor model P388 Leukemia (intraperitoneal) in B6D2F1 (BDF1) mice. Conditions: endpoint: median survival time, higher = longer survival. The procedure, abridged: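 Reported as T/C, where T is the survival measurement in dosed animals and C the same measurement in vehicle controls.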

Setting [1] is: dose: 6.25 mg/kg/injection, schedule: Q04DX003 (ip), vehicle: saline.
The mark [2] stands for this setting: dose: 12.5 mg/kg/injection, schedule: Q04DX003 (ip), vehicle: saline.
Setting [3] is: dose: 50.0 mg/kg/injection, schedule: Q01DX009 (ip), vehicle: saline with Tween-80.
Where [4] appears, read: dose: 100.0 mg/kg/injection, schedule: Q01DX009 (ip), vehicle: saline with Tween-80.
[5] abbreviates: dose: 200.0 mg/kg/injection, schedule: Q01DX009 (ip), vehicle: saline with Tween-80.

For `CCN(CC)CCNc1ccc(C)c2sc3ccccc3c(=O)c12` (tested in a mixture with another compound), the T/C was 100 % of control and 121 % of control (dose: 5.5 mg/kg/injection, schedule: Q01DX009 (ip), vehicle: saline); 90 % of control and 110 % of control (dose: 8.2 mg/kg/injection, schedule: Q01DX009 (ip), vehicle: saline); 122 % of control (dose: 22.0 mg/kg/injection, schedule: Q01DX009 (ip), vehicle: saline); 110 % of control (dose: 33.0 mg/kg/injection, schedule: Q01DX009 (ip), vehicle: saline); 116 % of control (dose: 35.0 mg/kg/injection, schedule: Q01DX009 (ip), vehicle: saline); 154 % of control (dose: 50.0 mg/kg/injection, schedule: Q01DX009 (ip), vehicle: saline). The T/C by setting is: (dose: 75.0 mg/kg/injection, schedule: Q01DX009 (ip), vehicle: saline) 154 % of control and 180 % of control; (dose: 88.0 mg/kg/injection, schedule: Q04DX003 (ip), vehicle: saline) 122 % of control; (dose: 100.0 mg/kg/injection, schedule: Q04DX003 (ip), vehicle: alcohol) 94 % of control; (dose: 100.0 mg/kg/injection, schedule: Q04DX003 (ip), vehicle: saline) 116 % of control; (dose: 200.0 mg/kg/injection, schedule: Q04DX003 (ip), vehicle: alcohol) 111 % of control; (dose: 200.0 mg/kg/injection, schedule: Q04DX003 (ip), vehicle: saline) 166 % of control. Also, the T/C reads like this: (dose: 300.0 mg/kg/injection, schedule: Q04DX003 (ip), vehicle: saline) 95 % of control; (dose: 400.0 mg/kg/injection, schedule: Q04DX003 (ip), vehicle: alcohol) 111 % of control.
`CCCCCCCCCCCCCCCCCC(=O)[O][Hg][c]1ccccc1`: the T/C reads like this: (dose: 5.0 mg/kg/injection, schedule: Q01DX009 (ip), vehicle: Klucel (hydroxypropylcellulose) (HPC)) 100 % of control; (dose: 5.5 mg/kg/injection, schedule: Q01DX001 (ip), vehicle: Klucel (hydroxypropylcellulose) (HPC)) 104 % of control; (dose: 10.0 mg/kg/injection, schedule: Q01DX009 (ip), vehicle: Klucel (hydroxypropylcellulose) (HPC)) 104 % of control; (dose: 10.0 mg/kg/injection, schedule: Q01DX009 (ip), vehicle: other) 115 % of control; (dose: 11.0 mg/kg/injection, schedule: Q01DX001 (ip), vehicle: Klucel (hydroxypropylcellulose) (HPC)) 95 % of control; (dose: 14.0 mg/kg/injection, schedule: Q04DX003 (ip), vehicle: Klucel (hydroxypropylcellulose) (HPC)) 115 % of control. The T/C is 109 % of control (dose: 20.0 mg/kg/injection, schedule: Q01DX009 (ip), vehicle: Klucel (hydroxypropylcellulose) (HPC)) and 120 % of control (dose: 22.0 mg/kg/injection, schedule: Q04DX003 (ip), vehicle: Klucel (hydroxypropylcellulose) (HPC)).
For the compound `BrCCC[P+](c1ccccc1)(c1ccccc1)c1ccccc1`, the T/C reads like this: (dose: 0.94 mg/kg/injection, schedule: Q01DX010 (ip), vehicle: saline) 95 % of control; (dose: 1.88 mg/kg/injection, schedule: Q01DX010 (ip), vehicle: saline) 104 % of control; (dose: 1.9 mg/kg/injection, schedule: Q01DX009 (ip), vehicle: saline) 105 % of control; (dose: 3.13 mg/kg/injection, schedule: Q04DX003 (ip), vehicle: saline) 92 % of control; (dose: 3.75 mg/kg/injection, schedule: Q01DX009 (ip), vehicle: saline) 122 % of control; (dose: 3.75 mg/kg/injection, schedule: Q01DX010 (ip), vehicle: saline) 114 % of control. Further, the T/C by setting is: under setting [1], 92 % of control; (dose: 7.5 mg/kg/injection, schedule: Q01DX009 (ip), vehicle: saline) 111 % of control; (dose: 7.5 mg/kg/injection, schedule: Q01DX010 (ip), vehicle: saline) 123 % of control; (dose: 12.5 mg/kg/injection, schedule: Q01DX009 (ip), vehicle: saline with Tween-80) 150 % of control; under setting [2], 103 % of control; (dose: 15.0 mg/kg/injection, schedule: Q01DX009 (ip), vehicle: saline) 194 % of control. For the setting “dose: 15.0 mg/kg/injection, schedule: Q01DX010 (ip), vehicle: saline”, the T/C is 118 % of control.
Regarding `COCCCNC1=C(C#N)C(=O)NC2(CCCC2)S1`, the T/C under setting [3] is 90 % of control, the T/C under setting [4] is 90 % of control and the T/C under setting [5] is 104 % of control.
On to `Nc1ncnc2c1ncn2C1OC(CO)C(O)C1O.[Cl][Pt][Cl]` (stereo not drawn), for which the T/C is 115 % of control (dose: 100.0 mg/kg/injection, schedule: Q01DX009 (ip), vehicle: water); 102 % of control (dose: 200.0 mg/kg/injection, schedule: Q01DX009 (ip), vehicle: water); 96 % of control (dose: 400.0 mg/kg/injection, schedule: Q01DX009 (ip), vehicle: water).
As to `NNC(=O)CCc1ccccc1Br`, the T/C (dose: 25.0 mg/kg/injection, schedule: Q01DX009 (ip), vehicle: saline with Tween-80) is 100 % of control and the T/C under setting [3] is 100 % of control.
On to `CCCCN(CCO)C(C#CC(C)(C)O)C(C)C` (stereo not drawn), for which the T/C was 110 % of control (dose: 50.0 mg/kg/injection, schedule: Q01DX001 (ip), vehicle: saline sonified); 110 % of control (dose: 100.0 mg/kg/injection, schedule: Q01DX001 (ip), vehicle: saline sonified); 105 % of control (dose: 200.0 mg/kg/injection, schedule: Q01DX001 (ip), vehicle: saline sonified).
For the compound `C=CC[n+]1cccc2ccccc21`, the T/C runs as follows: under setting [1], 100 % of control; (dose: 12.5 mg/kg/injection, schedule: Q01DX009 (ip), vehicle: Klucel (hydroxypropylcellulose) (HPC)) 86 % of control; under setting [2], 95 % of control; (dose: 25.0 mg/kg/injection, schedule: Q01DX009 (ip), vehicle: Klucel (hydroxypropylcellulose) (HPC)) 90 % of control; (dose: 25.0 mg/kg/injection, schedule: Q04DX003 (ip), vehicle: saline) 109 % of control.
With `COC(=O)[C@@]12OC[C@]34[C@H]([C@@H](O)[C@@H]1O)[C@@]1(C)CC(=O)C(OC(=O)CC(=O)OC5=C(C)[C@@H]6C[C@H]7OC(=O)[C@H](OC(=O)C=C(C)C)[C@H]8[C@]9(C(=O)OC)OC[C@]78[C@H]([C@@H](O)[C@@H]9O)[C@@]6(C)CC5=O)=C(C)[C@@H]1C[C@H]3OC(=O)[C@H](OC(=O)C=C(C)C)[C@@H]24`, the T/C is 104 % of control (dose: 0.18 mg/kg/injection, schedule: Q01DX009 (ip), vehicle: distilled water + Tween-80); 104 % of control (dose: 0.37 mg/kg/injection, schedule: Q01DX009 (ip), vehicle: distilled water + Tween-80); 100 % of control (dose: 0.75 mg/kg/injection, schedule: Q01DX009 (ip), vehicle: distilled water + Tween-80); 98 % of control (dose: 1.5 mg/kg/injection, schedule: Q01DX009 (ip), vehicle: distilled water + Tween-80); 111 % of control (dose: 3.0 mg/kg/injection, schedule: Q01DX009 (ip), vehicle: distilled water + Tween-80).
For `Cc1c(C)c(N)c(C)c(C)c1N`, the T/C (dose: 3.0 mg/kg/injection, schedule: Q01DX009 (ip), vehicle: Klucel (hydroxypropylcellulose) (HPC)) is 91 % of control; the T/C (dose: 3.0 mg/kg/injection, schedule: Q04DX003 (ip), vehicle: Klucel (hydroxypropylcellulose) (HPC)) is 108 % of control; the T/C (dose: 6.0 mg/kg/injection, schedule: Q01DX009 (ip), vehicle: Klucel (hydroxypropylcellulose) (HPC)) is 87 % of control; the T/C (dose: 6.0 mg/kg/injection, schedule: Q04DX003 (ip), vehicle: Klucel (hydroxypropylcellulose) (HPC)) is 100 % of control; the T/C (dose: 12.0 mg/kg/injection, schedule: Q01DX009 (ip), vehicle: Klucel (hydroxypropylcellulose) (HPC)) is 95 % of control; the T/C (dose: 12.0 mg/kg/injection, schedule: Q04DX003 (ip), vehicle: Klucel (hydroxypropylcellulose) (HPC)) is 91 % of control.
Consider `CCCCCCCCCCCCCCCCCCSc1ccccc1`, for which the T/C is 110 % of control (dose: 6.25 mg/kg/injection, schedule: Q04DX003 (ip), vehicle: saline sonified); 100 % of control (dose: 12.5 mg/kg/injection, schedule: Q04DX003 (ip), vehicle: saline sonified); 110 % of control (dose: 25.0 mg/kg/injection, schedule: Q04DX003 (ip), vehicle: saline sonified).
For the compound `Cc1ccc(Nc2n[nH]c(=S)s2)cc1C`, the T/C by setting is: under setting [4], 104 % of control; under setting [5], 109 % of control; (dose: 400.0 mg/kg/injection, schedule: Q01DX009 (ip), vehicle: saline with Tween-80) 109 % of control.

The values are drawn from PubChem BioAssay AID328 (DTP/NCI, 2004).
